Test [1] deals with JAK1/JAK3. The test can be described thus: IL-2-stimulated pSTAT5 in human whole blood. Type of test: cell-based. How it is done: With respect to IL-2-stimulated JAK1/3 activation in human whole blood cells, whole blood (50 μL) was preincubated with compounds for 30 min and then stimulated with IL-2 (20 ng/mL) for 15 min.
(§1) The stimulations stated above were terminated with prewarmed Lyse/Fix Buffer (558,049; BD Biosciences, San Jose, CA, USA) for 10 min. Cells were stained with an anti-cluster of differentiation (CD)3 fluorescein isothiocyanate (FITC) antibody (required for PBMCs but not for the other cell types), washed, and permeabilized on ice using Perm III Buffer (558,050; BD Biosciences) prior to staining with an Alexa Fluor 647 anti-phosphorylated (p)STAT5 (pY694) antibody for 30 min and analyzed by flow cytometry. Phosphorylation of STAT5 was quantified by the median fluorescence intensity (MFI) after gating on the CD3-positive population.

In test [2] the test system is JAK2/JAK2. The test is described as follows: TPO-stimulated pSTAT3/STAT5 in platelets of human whole blood. Type of test: cell-based. How it is done:
Stimulation was terminated by adding Lyse/Fix buffer. Staining with BUV786 mouse anti-human CD61 antibody (744384; BD Biosciences) was carried out, followed by washing, permeabilization and staining with PE mouse anti-human STAT3 antibody (651004; BD Biosciences) and APC mouse anti-human STAT5 antibody (562076; BD Biosciences), as described above. The expression of p-STAT3 and STAT5 was quantified by the MFI after the number of CD61-positive platelets was optimized.

For test [3], the system named is TYK2/JAK1. The test can be described thus: IFNα-stimulated pSTAT5 in human PBMC (CD3+), FACS. Type of test: cell-based. How it is done:
With regard to IFNα-stimulated phosphorylation of STAT5 in human peripheral blood mononuclear cells (PBMCs), after incubation with QL-1200186 for 1 h, human PBMCs were stimulated with recombinant human IFNα (1000 U/mL; 11200–2; PBL Assay Science) for 30 min.
as §1

Test [4] deals with TYK2/JAK1. The test can be described thus: IFNα-induced pSTAT1 in CD3+ T cells of human PBMCs. It is filed as cell-based. How it is done:
(§2) The reaction was terminated by collecting cells for surface staining. Cells were stained with anti-CD3 FITC (300406; Biolegend, San Diego, CA, USA), anti-CD19 APC (555415; BD Biosciences) or aqua fluorescent reactive dye BV421 (L34966A; Invitrogen, Carlsbad, CA, USA) antibodies for 20 min. After washing, fixation buffer (557870; BD Biosciences) was added and incubated for 10 min. Cells were washed and permeabilized on ice using Perm III Buffer (558050; BD Biosciences). Cells were stained with PE anti-PSTAT1 antibody (562069; BD Biosciences) for 30 min and analyzed by flow cytometry.

The subject of test [5] is TYK2/JAK1. The test is described as follows: IL-23-induced pSTAT3 in human Th17 cells. It is filed as cell-based. How it is done: Human naïve CD4^+ T cells were separated using a human naïve CD4^+ T-cell isolation kit (StemCell, #17,852), and then cells were stimulated with anti-CD3 monoclonal antibody and anti-CD28 monoclonal antibody for 7–10 days under the following Th17-skewing treatments: IL-6, IL-23, IL-1β and transforming growth factor-β. Half of the medium was replaced with fresh medium containing a stimulant to induce differentiation every other day. Th17 cells were incubated overnight at 37 °C for deactivation. Cells were reinoculated on 96-well plates and cocultured with gradient-diluted QL-1200186 for 1 h and then stimulated with recombinant human IL-23 (ACRO: #IL-B-H52 WS) for 0.5 h. Cells were collected, and phosphorylation of STAT3 was quantified according to the MFI.

For test [6], the system named is TYK2/JAK1. The test is described as follows: IFNα HEK293 (HEK-Blue IFN-α/β) reporter gene assay. Type of test: cell-based, human. As for the experimental part: HEK-Blue™ IFN-α/β cells were used to determine the activity of QL-1200186. After 24 h of incubation with QL-1200186, HEK-Blue™ IFN-α/β cells (Invivogen; NKB-IFNAB) were stimulated with human IFNα (200 U/mL; catalog number: 11200–2; PBL Assay Science; Piscataway, NJ, USA) for 6 h. Stimulation of HEK-Blue IFN-α/β cells with human IFNα activates the JAK/STAT/ISGF3 pathway and subsequently induces the production of SEAP. Levels of SEAP in the supernatant were readily assessable using QUANTI-Blue™ Solution (InvivoGen, San Diego, CA, USA).
Background: In a reporter assay the amount or activity of a reporter protein is the signal.

In test [7] the test system is TYK2/JAK1. The test can be described thus: IL-23 HEK293 reporter assay. Type of test: cell-based, human.
The next test relates to TYK2/JAK2. The test can be described thus: IL-12/IL-18-induced IFNγ production in NK-92 cells, ELISA. Type of test: cell-based, human. As for the experimental part:
The inhibitory effect of QL-1200186 on IL-12/IL-18-induced IFNγ production in NK cells or human whole blood was determined by enzyme-linked immunosorbent assay (ELISA). NK92 cells were stimulated with recombinant human IL-12 (2 ng/mL; 200–12; PeproTech, Cranbury, NJ, USA) and recombinant human IL-18 (5 ng/mL; 9124-IL-050/CF; R&D Systems, Minneapolis, MN, USA) with or without QL-1200186 for 24 h at 37 °C. For human whole blood cells, whole blood (200 μL) was preincubated with the compound for 1 h and then stimulated with recombinant human IL-12 (2 ng/mL) or recombinant human IL-18 (10 ng/mL) for 24 h. After centrifugation, the supernatant was collected, and IFNγ production in the supernatant was measured with human IFNγ ELISA kits according to the manufacturer’s instructions (Biolegend, 430,104).
(An ELISA detects its analyte on a solid surface through an enzyme-linked reagent.)

In test [8] the test system is TYK2/JAK1. The test is described as follows: IFNα-induced pSTAT1 in CD19+ B cells of human PBMCs. It is filed as cell-based. As for the experimental part: as §2
In test [9] the test system is JAK1/JAK3. The test can be described thus: IL-2-stimulated pSTAT5 in human PBMC. It is filed as cell-based. Particulars: @10μM. How it is done: With regard to IL-2-stimulated JAK1/3 activation in human PBMCs, after 1 h of incubation with QL-1200186, human PBMCs were stimulated with human IL-2 (20 ng/mL; C013; Novoprotein) for 20 min.
as §1

In test [10] the test system is JAK2/JAK2. The test is described as follows: GM-CSF-stimulated pSTAT5 in U937 cells. Type of test: cell-based, human. Particulars: @10μM. How it is done: With respect to GM-CSF-stimulated JAK2 activation in U937 cells (Cobioer Biosciences, CBP60277), after 1 h of treatment with QL-1200186, U937 cells were stimulated with GM-CSF (20 ng/mL; C003; Novoprotein, Suzhou, China) for 15 min.
as §1

`CNc1cc(Nc2cccn(-c3ccccn3)c2=O)nc2c(C(=O)N[C@@H]3CC[C@H]3OC)cnn12` [NDI-034858, reference compound]: in the test on JAK1/JAK3 [1], the “activity in IL-2-mediated JAK1/JAK3 signaling” value is given as “no activity”. Moreover, the “activity in thrombopoietin (TPO)-induced JAK2/JAK2 signaling” value with JAK2/JAK2 [2] (human whole blood) is “no activity”.

Take “deucravacitinib [BMS-986165, reference compound]”: the IC50 (usually the concentration at which inhibition is half-maximal) in the test with TYK2/JAK1 [3] was 19 nM; in the test with TYK2/JAK1 [4], 7.8 nM; in the test on TYK2/JAK1 [5] it was 6 nM; in the test with TYK2/JAK1 [6], 6.33 nM; in the test with TYK2/JAK1 [7], 6.41 nM; in the test with TYK2/JAK2 it was 38.8 nM. Further, 6.29 nM corresponded to half-maximal inhibition in the test on TYK2/JAK1 [8] (IC50). Moreover, the “activity in IL-2-mediated JAK1/JAK3 signaling” value in the test with JAK1/JAK3 [1] is “slight inhibitory effect”. In addition, the “TPO-pSTAT3/STAT5 in human whole blood (JAK2/JAK2) inhibition” value in the test with JAK2/JAK2 [2] (@10μM) was “no inhibition @10μM”. For the same molecule, the “IL-2- pSTAT5 in PBMC (JAK1/JAK3) inhibition” value in the test on JAK1/JAK3 [9] is approximately 40% inhibition @10μM. Further, in the test on JAK2/JAK2 [10], the “GM-CSF-pSTAT5 in U937 (JAK2/JAK2) inhibition” value is on record as approximately 10% inhibition @10μM.
